Measurements taken from BindingDB's records for doi:10.1016/s0968-0896(02)00095-0 (Purdue University, 2002).

What follows are compounds tested against T1, Gag-Pol polyprotein [588-1027]/[588-1147] (Human immunodeficiency virus 1, UniProt P04585) (assay: HIV-1 RT Assay). Conditions: pH 7.9.
T1 construct: 588-1027; 588-1147
Description: The IC50 of reverse transcriptase is the concentration that inhibits 50% of recombinant HIV-1 RT RNA-directed DNA polymerase activity in vitro.

| Structure (SMILES) | IC50 |
| --- | --- |
| CCOC(=O)N1CCC(=C(c2cc(Cl)c(O)c(C(=O)O)c2)c2cc(Cl)c(O)c(C(=O)O)c2)CC1 [5-[(3-carboxy-5-chloro-4-hydroxyphenyl)[1-(ethoxycarbonyl)piperidin-4-ylidene]methyl]-3-chloro-2-hydroxybenzoic acid] | > 100 µM |
| CCOC(=O)N1CCC(C(c2cc(C)c(OC)c(C(=O)OC)c2)c2cc(C)c(OC)c(C(=O)OC)c2)CC1 [Ethyl 4 - (4,4 - dimethoxy - 3,3 - di(methoxycarbonyl)-5,5-dimethyl-diphenylmethyl)piperidinecarboxylate] | > 100 µM |
| CCOC(=O)N1CCC(=C(c2cc(Cl)c(OC)c(C(=O)O)c2)c2cc(Cl)c(OC)c(C(=O)O)c2)CC1 [Ethyl 4-(3,3-dicarboxy-5,5-dichloro-4,4-dimethoxydiphenylmethylene)piperidinecarboxylate] | > 100 µM |
| CCOC(=O)N1CCC(=C(c2cc(Cl)c(OC)c(C(=O)OC)c2)c2cc(Cl)c(OC)c(C(=O)OC)c2)CC1 [Ethyl 4-(3,3-dichloro-4,4-dimethoxy-5,5-di(methoxycarbonyl)-diphenylmethylene)piperidinecarboxylate] | > 100 µM |
| COC(=O)c1cc(C(c2cc(C)c(OC)c(C(=O)OC)c2)C2CCN(C(=O)OC)CC2)cc(C)c1OC [Methyl 4 - (4,4 - dimethoxy - 3,3 - di(methoxycarbonyl)-5,5-dimethyl-diphenylmethyl)piperidinecarboxylate] | > 100 µM |
| COC(=O)N1CCC(=C(c2cc(Cl)c(OC)c(C(=O)O)c2)c2cc(Cl)c(OC)c(C(=O)O)c2)CC1 [Methyl 4-(3,3-dicarboxy-5,5-dichloro-4,4-dimethoxydiphenylmethylene)piperidinecarboxylate] | > 100 µM |
| COC(=O)c1cc(C(=C2CCN(C(=O)OC)CC2)c2cc(C)c(OC)c(C(=O)OC)c2)cc(C)c1OC [Methyl 4-(4,4-dimethoxy-3,3 - di(methoxycarbonyl) -5,5 - dimethyl - diphenylmethylene)piperidinecarboxylate] | > 100 µM |
| COC(=O)CCCC(=O)N1CCC(=C(c2cc(Cl)c(OC)c(C(=O)OC)c2)c2cc(Cl)c(OC)c(C(=O)OC)c2)CC1 [Methyl 5-[4-{3,3-dichloro-4,4-dimethoxy-5,5-di(methoxycarbonyl)diphenylmethylene}piperidyl]-5-oxopentanoate] | > 100 µM |
| COC(=O)CCCC(=O)N1CCC(=C(c2cc(C)c(OC)c(C(=O)OC)c2)c2cc(C)c(OC)c(C(=O)OC)c2)CC1 [Methyl 5-[4-{4,4-dimethoxy-4,4-bis(methoxycarbonyl)-5,5-(dimethyl)diphenylmethylene}piperidyl]-5-oxopentanoate] | > 100 µM |
| CCOC(=O)N1CCC(=C(c2cc(Cl)c3c(c2)C(=O)OC(C)(C)O3)c2cc(Cl)c3c(c2)C(=O)OC(C)(C)O3)CC1 [ethyl 4-[bis(8-chloro-2,2-dimethyl-4-oxo-2,4-dihydro-1,3-benzodioxin-6-yl)methylidene]piperidine-1-carboxylate] | > 100 µM |
| CCOC(=O)N1CCC(=C(c2cc(C)c(OC)c(C(=O)OC)c2)c2cc(C)c(OC)c(C(=O)OC)c2)CC1 [ethyl 4-{bis[4-methoxy-3-(methoxycarbonyl)-5-methylphenyl]methylidene}piperidine-1-carboxylate] | > 100 µM |
| COC(=O)c1cc(C(=C2CCN(C(=O)OC)CC2)c2cc(Cl)c(OC)c(C(=O)OC)c2)cc(Cl)c1OC [methyl 4-{bis[3-chloro-4-methoxy-5-(methoxycarbonyl)phenyl]methylidene}piperidine-1-carboxylate] | > 100 µM |
| COC(=O)N1CCC(=C2c3ccccc3C=Cc3ccccc32)CC1 [methyl 4-{tricyclo[9.4.0.0^{3,8}]pentadeca-1(11),3,5,7,9,12,14-heptaen-2-ylidene}piperidine-1-carboxylate] | > 100 µM |
| COC(=O)N1CCC(=C2c3ccccc3CCc3ccccc32)CC1 [methyl 4-{tricyclo[9.4.0.0^{3,8}]pentadeca-1(11),3,5,7,12,14-hexaen-2-ylidene}piperidine-1-carboxylate] | > 100 µM |
